Laboratory results taken from paper PMC4303209, “A novel phosphatidylinositol 3-kinase (PI3K) inhibitor directs a potent FOXO-dependent, p53-independent cell cycle arrest phenotype characterized by the differential induction of a subset of FOXO-regulated genes” (Breast Cancer Research : BCR, 2014).

System: MCF-7 breast cancer cells
Assay: Microarray gene expression analysis (Agilent whole human genome 4 x 44K; compound vs DMSO, LIMMA log2 fold change)
Format: cell-based
Conditions: Apoptosis genes

Oc1cccc(-c2nc(N3CCOCC3)c3oc4ncccc4c3n2)c1 [PI-103]
CTNNA1 log2FC (Gene 1495): 0.421
CTNNB1 log2FC (Gene 1499): 0.098
CTSB log2FC (Gene 1508): 0.047
CTSH log2FC (Gene 1512): -0.000676
CTSL log2FC (Gene 1514): 0.329
CX3CR1 log2FC (Gene 1524): 0.187
CYLD log2FC (Gene 1540): 0.377
DAB2 log2FC (Gene 1601): -0.118
DAD1 log2FC (Gene 1603): -0.506
DAP log2FC (Gene 1611): -0.163
DAPK1 log2FC (Gene 1612): 0.477
DAPK3 log2FC (Gene 1613): -0.075
DBH log2FC (Gene 1621): -0.084
DCC log2FC (Gene 1630): -0.032
GADD45A log2FC (Gene 1647): -0.795
DDIT3 log2FC (Gene 1649): 2.078
DDX3X log2FC (Gene 1654): -1.134
DDX5 log2FC (Gene 1655): -1.225
DFFA log2FC (Gene 1676): -0.256
DFNA5 log2FC (Gene 1687): -0.030
DHCR24 log2FC (Gene 1718): -0.730
DHODH log2FC (Gene 1723): -0.198
NQO1 log2FC (Gene 1728): -0.052
DLX1 log2FC (Gene 1745): -0.636
DNASE1 log2FC (Gene 1773): 0.269
DNASE1L3 log2FC (Gene 1776): -0.152
DNASE2 log2FC (Gene 1777): 0.667
DOCK1 log2FC (Gene 1793): 0.305
DPEP1 log2FC (Gene 1800): 0.033
ATN1 log2FC (Gene 1822): -0.173
DSG1 log2FC (Gene 1828): -0.439
DSG2 log2FC (Gene 1829): 0.213
DSG3 log2FC (Gene 1830): -0.053
TSC22D3 log2FC (Gene 1831): 0.499
DSP log2FC (Gene 1832): 0.622
DUSP1 log2FC (Gene 1843): -0.801
DUSP2 log2FC (Gene 1844): -2.156
DUSP6 log2FC (Gene 1848): -1.955
E2F1 log2FC (Gene 1869): -0.119
E2F2 log2FC (Gene 1870): -0.377
ECT2 log2FC (Gene 1894): 0.836
EDN1 log2FC (Gene 1906): 0.126
EDNRA log2FC (Gene 1909): 0.064
EDNRB log2FC (Gene 1910): -0.042
EEF1A2 log2FC (Gene 1917): 0.203
EFNA5 log2FC (Gene 1946): -0.125
EGFR log2FC (Gene 1956): 0.479
EGR1 log2FC (Gene 1958): -2.608
EGR2 log2FC (Gene 1959): -0.367
EPHA2 log2FC (Gene 1969): -1.806
EIF5A log2FC (Gene 1984): -0.261
ENDOG log2FC (Gene 2021): -0.245
EP300 log2FC (Gene 2033): -0.124
EPHA7 log2FC (Gene 2045): -0.025
CLN8 log2FC (Gene 2055): -0.236
EPO log2FC (Gene 2056): -0.136
ERBB3 log2FC (Gene 2065): 0.809
ERBB4 log2FC (Gene 2066): 0.106
ERCC2 log2FC (Gene 2068): -0.269
ERCC3 log2FC (Gene 2071): -0.108
ERCC5 log2FC (Gene 2073): 0.823
ERCC6 log2FC (Gene 2074): 0.488
ERN1 log2FC (Gene 2081): -0.108
ESR1 log2FC (Gene 2099): -0.048
ESR2 log2FC (Gene 2100): -0.062
ETS1 log2FC (Gene 2113): -0.820
EYA2 log2FC (Gene 2139): -0.257
F2R log2FC (Gene 2149): 0.377
F3 log2FC (Gene 2152): -0.177
PTK2B log2FC (Gene 2185): 0.175
FCER1G log2FC (Gene 2207): -0.541
FGD1 log2FC (Gene 2245): -0.255
FGF4 log2FC (Gene 2249): 0.019
FGF8 log2FC (Gene 2253): -0.135
FGF10 log2FC (Gene 2255): -0.00185
FGFR1 log2FC (Gene 2260): -0.374
FGFR3 log2FC (Gene 2261): -0.164
FGFR2 log2FC (Gene 2263): 1.806
FHIT log2FC (Gene 2272): -0.336
FHL2 log2FC (Gene 2274): -0.078
FOXC1 log2FC (Gene 2296): -0.767
FOXC2 log2FC (Gene 2303): -0.284
FLT3 log2FC (Gene 2322): 0.120
FLT4 log2FC (Gene 2324): -0.157
FNTA log2FC (Gene 2339): 0.629
FXN log2FC (Gene 2395): -0.514
FRZB log2FC (Gene 2487): 0.040
FYN log2FC (Gene 2534): 0.082
G6PD log2FC (Gene 2539): -0.156
GABRA5 log2FC (Gene 2558): -0.0016
GABRB2 log2FC (Gene 2561): -0.080
GABRB3 log2FC (Gene 2562): -0.025
GAS1 log2FC (Gene 2619): 0.756
GAS2 log2FC (Gene 2620): 0.149
GATA1 log2FC (Gene 2623): -0.018
GATA3 log2FC (Gene 2625): -0.114
GDNF log2FC (Gene 2668): -0.175
B4GALT1 log2FC (Gene 2683): 0.192
GJA1 log2FC (Gene 2697): -0.613
GCLC log2FC (Gene 2729): 0.812
GLI3 log2FC (Gene 2737): 0.540
GLO1 log2FC (Gene 2739): -0.070
GML log2FC (Gene 2765): -0.071
GNB1 log2FC (Gene 2782): -0.085
GNGT1 log2FC (Gene 2792): -0.037
GNRH1 log2FC (Gene 2796): 0.097
SFN log2FC (Gene 2810): -1.150
GPLD1 log2FC (Gene 2822): -0.157
CXCR3 log2FC (Gene 2833): -0.474
GRK5 log2FC (Gene 2869): -0.059
MKNK2 log2FC (Gene 2872): -0.826
GPX1 log2FC (Gene 2876): 0.431
GRID2 log2FC (Gene 2895): -0.052
GRIK2 log2FC (Gene 2898): 0.091
GRIK5 log2FC (Gene 2901): -0.101
GRIN1 log2FC (Gene 2902): -0.444
GRIN2A log2FC (Gene 2903): -0.041
NR3C1 log2FC (Gene 2908): 1.042
GRM4 log2FC (Gene 2914): -0.029
PDIA3 log2FC (Gene 2923): -0.085
GSK3A log2FC (Gene 2931): -0.030
GSK3B log2FC (Gene 2932): -0.455
GSN log2FC (Gene 2934): 0.174
GSTP1 log2FC (Gene 2950): 0.117
MSH6 log2FC (Gene 2956): -0.075
GZMH log2FC (Gene 2999): -0.148
GZMA log2FC (Gene 3001): -0.034
GZMB log2FC (Gene 3002): -0.002
GZMM log2FC (Gene 3004): -0.381
H1F0 log2FC (Gene 3005): 0.834
HCK log2FC (Gene 3055): -0.033
HDAC1 log2FC (Gene 3065): -0.547
HDAC2 log2FC (Gene 3066): 0.060
HELLS log2FC (Gene 3070): 0.140
NCKAP1L log2FC (Gene 3071): 0.054
HGF log2FC (Gene 3082): -0.198
NRG1 log2FC (Gene 3084): -1.164
HIC1 log2FC (Gene 3090): -0.122
HIF1A log2FC (Gene 3091): 0.019
HIP1 log2FC (Gene 3092): -0.167
HINT1 log2FC (Gene 3094): 0.210
HK2 log2FC (Gene 3099): -1.428
HMGB1 log2FC (Gene 3146): 0.343
HMGB2 log2FC (Gene 3148): 1.070
HMGCR log2FC (Gene 3156): 0.051
HMOX1 log2FC (Gene 3162): 1.050
NR4A1 log2FC (Gene 3164): -0.484
HOXA5 log2FC (Gene 3202): 0.436
HOXA13 log2FC (Gene 3209): 0.042
HRAS log2FC (Gene 3265): -0.758
HRG log2FC (Gene 3273): -0.015
PRMT2 log2FC (Gene 3275): 0.289
HSPA1A log2FC (Gene 3303): -2.361
HSPA5 log2FC (Gene 3309): -0.793
HSPB1 log2FC (Gene 3315): -0.135
HSP90AA1 log2FC (Gene 3320): 0.717
HSP90AB1 log2FC (Gene 3326): -0.430
